# According to paper PMC8399565, “Fluorescence Cross-Correlation Spectroscopy Yields True Affinity and Binding Kinetics of Plasmodium Lactate Transport Inhibitors” (Pharmaceuticals, 2021):
# Where two headings read alike, the source gives them in different places.
# Columns and labels:
# PfFNT G107S-GFP = molecular target: T1, PfFNT G107S-GFP (Plasmodium falciparum, UniProt O77389, G107S); assay: FCCS equilibrium saturation binding to solubilized PfFNT G107S mutant
# T1 construct: The DNA of full-length PfFNT from Plasmodium falciparum 3D7 was cloned as a C-terminal GFP fusion; expressed in transfected cells; intact cells for imaging, LMNG-solubilized membranes for FCCS
# Experimental: Next, we determined inhibitor binding affinities for both PfFNT and its G107S mutant. Solubilized cell membranes containing PfFNT-GFP at a concentration of 10 nM were incubated for 1 h at ambient temperature with increasing concentrations of labeled inhibitor molecules to obtain saturation binding curves and to calculate the dissociation constant (KD) of the interactions. Equilibrium binding experiments were pipetted in biological triplicates and carried out and analyzed as described in Antoine et al..
# We next performed equilibrium saturation binding assays to assess the binding of both tracers to the mutant PfFNT G107S.
# A cell pellet was resuspended in 1 mL of ice-cold TBS (50 mM Tris-HCl (pH 7.4) and 150 mM NaCl) supplemented with cOmplete™ Protease Inhibitor Cocktail (cat. no 11697498001, Roche, Switzerland) and broken by sonication on ice, using an Ultrasonic homogenizer SONOPULS HD 2070 (Bandelin, Germany). Cell debris was removed by centrifugation for 5 min at 1100× g at 4 °C, and membranes were harvested from the cleared lysate by subsequent centrifugation at 21,000× g. The resulting pellet containing cellular membranes was lysed using a Dounce homogenizer. The receptor was solubilized by incubation in 1% LMNG (cat. no NG310, Anatrace, USA) or in another detergent (DDM, DM, CHAPS, CHS, LDAO) when conducting tests to determine the best solubilization conditions. The insolubilized membrane material was removed by centrifugation for 1 h at 21,000× g at 4 °C, and the supernatant was collected and directly subjected to FCCS analysis or stored at −80 °C.
# (§1) FCCS measurements were conducted in 384-well glass-bottom plates (cat. no PS96B-G175, SWISSCI, Switzerland) using an Insight plate reader (Evotec Technologies, Germany) fitted with a U-Apo300 40x water immersion lens, NA 1.15 (Olympus, Japan). The 488 nm laser line of an argon-ion laser and the light of a 633 nm helium–neon laser were used for excitation. Fluorescence fluctuations were recorded for 8 s with 12 repetitions and analyzed afterward using FCS+plus Analyze 1.1P (Evotec technologies, Version 1.2.5g). FCCS analysis was carried out as described previously. Briefly, for measuring the dissociation constant (KD), a titration series of 12 dilutions was prepared, where the concentration of the lysates obtained from HEK cells expressing GFP-fusions of PfFNT WT and G107S was kept constant, and the concentration of the labeled binding partner (BH296-DY647 and BH267.meta-DY647, respectively) was varied. The IC50 values were calculated by plotting the concentration from the dual labeled complex against the concentration of the competitor titrated over a concentration range from 10 µM to 10 pM. Samples were incubated for 1 h at room temperature prior to FCCS measurements to allow the formation of drug target complexes. From the resulting IC50 values, the Ki values were obtained by application of the Cheng Prusoff equation [17]. To assess the rate constants, time-resolved measurements were carried out at different concentrations of the labeled ligand. […] All KD and IC50 values, as well as kinetic parameters, were determined from three independently repeated experiments. The figures show one representative measurement; however, the calculated KD, Ki, kon and koff values are presented as an average of the three measurements ± SD. Error bars denote ± SEM.
# PfFNT wt-GFP = molecular target: T2, PfFNT wt-GFP (Plasmodium falciparum, UniProt O77389); assay: FCCS equilibrium competition binding, PfFNT wildtype; conditions: for Ki: Cheng Prusoff; for complex formed in the absence of a competitor: 70 nM tracer
# T2 construct: The DNA of full-length PfFNT from Plasmodium falciparum 3D7 was cloned as a C-terminal GFP fusion; expressed in transfected cells; intact cells for imaging, LMNG-solubilized membranes or lysates for FCCS
# Experimental: To analyze the binding properties of unlabeled inhibitors BH296 and […], we determined their inhibition constants (Ki) in equilibrium competition binding assays. For this, we first incubated membrane preparations comprising 10 nM of PfFNT wildtype with labeled BH296 at a concentration of 70 nM. The interaction was then competed with increasing amounts of unlabeled parental compounds BH296 and BH267.meta within a concentration range of 10 pM and 10 µM. The concentration of formed complex between PfFNT-GFP and BH296-DY647 relates to the values observed in the saturation binding assays. […] The corresponding Ki values were then calculated employing the Cheng Prusoff equation [17].
# In view of the differences in complex formation of both tracers, we were also interested to see how both unlabeled compounds perform in competition experiments with BH267.meta-DY647 as a probe. The identical PfFNT-GFP membrane preparation as in the previous experiment was incubated with BH267.meta-DY647 at a concentration of 70 nM to allow for complex formation. Different amounts of competitors BH296 and BH267.meta were added to the interaction at concentrations ranging from 10 pM to 10 µM and incubated at room temperature for 1 h to allow the interaction to reach equilibrium. […] A significant amount of 20% of complex remained intact, independent of competitor concentration and incubation time. This finding is of interest because it mirrors the behavior of BH296-DY647 in saturation binding assays, where a subfraction of target appeared incapable of binding to the more space-occupying BH296 (Figure 4d, Table 2).
# as §1
# [1] = fluorescent probe titrated against solubilized PfFNT G107S-GFP
# T1 sequence (O77389 whole entry G107S, the tested form may be a part): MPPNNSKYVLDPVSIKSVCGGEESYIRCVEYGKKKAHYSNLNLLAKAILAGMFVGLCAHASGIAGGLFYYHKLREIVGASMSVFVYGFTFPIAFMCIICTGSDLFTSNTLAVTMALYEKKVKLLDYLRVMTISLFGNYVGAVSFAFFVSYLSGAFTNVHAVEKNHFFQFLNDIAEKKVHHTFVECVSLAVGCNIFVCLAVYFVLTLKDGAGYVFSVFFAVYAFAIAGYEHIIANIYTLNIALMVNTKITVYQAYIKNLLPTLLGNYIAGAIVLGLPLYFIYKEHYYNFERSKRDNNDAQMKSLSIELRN
# T2 sequence (O77389 whole entry, the tested form may be a part): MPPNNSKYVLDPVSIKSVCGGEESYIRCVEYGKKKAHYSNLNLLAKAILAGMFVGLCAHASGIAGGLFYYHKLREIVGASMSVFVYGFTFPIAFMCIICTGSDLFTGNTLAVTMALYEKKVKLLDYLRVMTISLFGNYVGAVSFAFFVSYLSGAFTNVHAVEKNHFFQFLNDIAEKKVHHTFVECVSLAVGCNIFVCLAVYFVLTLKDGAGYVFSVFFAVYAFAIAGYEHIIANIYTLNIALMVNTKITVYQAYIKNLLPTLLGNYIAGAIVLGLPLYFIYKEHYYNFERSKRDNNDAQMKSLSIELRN
compound,measurement,setting,value
O=C(/C=C(\O)C(F)(F)C(F)(F)F)c1cccnc1 [BH267.meta],Kd,"PfFNT G107S-GFP; fluorescent probe titrated against solubilized PfFNT G107S-GFP, read-out: KD (equilibrium saturation binding)",405 nM
same,Ki,"PfFNT wt-GFP; fluorescent probe BH267.meta-DY647 70 nM, 1 h room temperature, read-out: Ki Competitor (converted)",56 nM
same,Ki,"PfFNT wt-GFP; fluorescent probe BH296-DY647 70 nM, 10 nM PfFNT-GFP, read-out: Ki Competitor (converted)",66 ± 6 nM
CCN1/C(=C/C=C/C=C/C2=[N+](CC)c3ccc(S(=O)(=O)O)cc3C2(C)CCCC(=O)NCCOCCOCCOCCOCCC(=O)NCCCOc2ccc(C(=O)/C=C(\O)C(F)(F)C(F)(F)F)cc2)C(C)(C)c2cc(S(=O)(=O)[O-])ccc21 (stereo not shown) [BH296-DY647],Kd,PfFNT G107S-GFP,> 2000 nM
same,KD (equilibrium saturation binding),PfFNT G107S-GFP; [1],no affinity above background
same,complex formed in the absence of a competitor,PfFNT wt-GFP; 10 nM PfFNT-GFP,1.5 nM
CCN1/C(=C/C=C/C=C/C2=[N+](CC)c3ccc(S(=O)(=O)O)cc3C2(C)CCCC(=O)NCCOCCOCCOCCOCCC(=O)NCCCOc2ccc(C(=O)/C=C(\O)C(F)(F)C(F)(F)F)cn2)C(C)(C)c2cc(S(=O)(=O)[O-])ccc21 (stereo not shown) [BH267.meta-DY647],Kd,PfFNT G107S-GFP,405 nM
same,Active Receptor (%),PfFNT G107S-GFP; fraction of PfFNT G107S-GFP involved in binding at saturation,n.d. 100%
same,complex formed in the absence of a competitor,PfFNT wt-GFP; 10 nM PfFNT-GFP,3 nM
"O=C(C=C(O)C(F)(F)C(F)(F)F)c1ccc(O)cc1 [BH296, 4,4,5,5,5-pentafluoro-3-hydroxy-1-(4-hydroxyphenyl)pent-2-en-1-one]",KD (equilibrium saturation binding),PfFNT G107S-GFP; [1],failed to bind within detection limits
same,Ki,"PfFNT wt-GFP; Ki Competitor, fluorescent probe BH267.meta-DY647 70 nM, 1 h room temperature",47 nM
same,Ki,"PfFNT wt-GFP; Ki Competitor, fluorescent probe BH296-DY647 70 nM, 10 nM PfFNT-GFP",48 ± 2 nM
same,complex remaining intact after competition,"PfFNT wt-GFP; tracer BH267.meta-DY647, independent of competitor concentration and incubation time",20%
